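These data come from cells grown in 96-well plates and exposed to compound for 48 hours at five concentrations. TGI is the concentration that stops growth completely.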
Tests used:
Experiment in all cases: growth of human tumour cells (NCI), 48 h
OVCAR-8 ovarian = tested on: OVCAR-8 ovarian
MOLT-4 leukemia = tested on: MOLT-4 leukemia
RXF 393 renal = tested on: RXF 393 renal
SK-MEL-5 melanoma = tested on: SK-MEL-5 melanoma
K-562 leukemia = tested on: K-562 leukemia
TK-10 renal = tested on: TK-10 renal
IGROV1 ovarian = tested on: IGROV1 ovarian
SF-268 CNS = tested on: SF-268 CNS
A549 NSCLC = tested on: A549 NSCLC
UO-31 renal = tested on: UO-31 renal
COLO 205 colon = tested on: COLO 205 colon
MDA-MB-435 = tested on: MDA-MB-435
KM12 colon = tested on: KM12 colon
U251 CNS = tested on: U251 CNS
MDA-N = tested on: MDA-N
SK-MEL-28 melanoma = tested on: SK-MEL-28 melanoma
BT-549 breast = tested on: BT-549 breast
HOP-62 NSCLC = tested on: HOP-62 NSCLC
HCT-116 colon = tested on: HCT-116 colon
EKVX NSCLC = tested on: EKVX NSCLC
CAKI-1 renal = tested on: CAKI-1 renal
OVCAR-3 ovarian = tested on: OVCAR-3 ovarian
CCRF-CEM leukemia = tested on: CCRF-CEM leukemia
786-0 renal = tested on: 786-0 renal
NCI-H522 lung = tested on: NCI-H522 lung
MDA-MB-231 breast = tested on: MDA-MB-231 breast
NCI/ADR-RES ovarian = tested on: NCI/ADR-RES ovarian
SNB-75 CNS = tested on: SNB-75 CNS
PC-3 prostate = tested on: PC-3 prostate
NCI-H23 lung = tested on: NCI-H23 lung
NCI-H460 lung = tested on: NCI-H460 lung
MALME-3M melanoma = tested on: MALME-3M melanoma
OVCAR-5 ovarian = tested on: OVCAR-5 ovarian
SF-295 CNS = tested on: SF-295 CNS
NCI-H226 lung = tested on: NCI-H226 lung
UACC-257 melanoma = tested on: UACC-257 melanoma
MCF7 breast = tested on: MCF7 breast
SN12C renal = tested on: SN12C renal
SF-539 CNS = tested on: SF-539 CNS
SR leukemia = tested on: SR leukemia
LOX IMVI melanoma = tested on: LOX IMVI melanoma
SNB-19 CNS = tested on: SNB-19 CNS
HOP-92 NSCLC = tested on: HOP-92 NSCLC
HT29 colon = tested on: HT29 colon
ACHN renal = tested on: ACHN renal
SW-620 colon = tested on: SW-620 colon
HCT-15 colon = tested on: HCT-15 colon
HCC-2998 colon = tested on: HCC-2998 colon
SK-OV-3 ovarian = tested on: SK-OV-3 ovarian
OVCAR-4 ovarian = tested on: OVCAR-4 ovarian
HS 578T breast = tested on: HS 578T breast
M14 melanoma = tested on: M14 melanoma
UACC-62 melanoma = tested on: UACC-62 melanoma
DU-145 prostate = tested on: DU-145 prostate
SK-MEL-2 melanoma = tested on: SK-MEL-2 melanoma
T-47D breast = tested on: T-47D breast
RPMI-8226 leukemia = tested on: RPMI-8226 leukemia

Structure (SMILES): CN(/N=C/C=N/N(C)C1=NCCCN1)C1=NCCCN1
- TGI (OVCAR-8 ovarian): > 100 µM
- TGI (MOLT-4 leukemia): > 100 µM
- TGI (RXF 393 renal): > 100 µM
- TGI (SK-MEL-5 melanoma): > 100 µM
- TGI (K-562 leukemia): > 100 µM
- TGI (TK-10 renal): > 100 µM
- TGI (IGROV1 ovarian): > 100 µM
- TGI (SF-268 CNS): > 100 µM
- TGI (A549 NSCLC): > 100 µM
- TGI (UO-31 renal): > 100 µM
- TGI (COLO 205 colon): > 100 µM
- TGI (MDA-MB-435): > 100 µM
- TGI (KM12 colon): > 100 µM
- TGI (U251 CNS): > 100 µM
- TGI (MDA-N): > 100 µM
- TGI (SK-MEL-28 melanoma): > 100 µM
- TGI (BT-549 breast): > 100 µM
- TGI (HOP-62 NSCLC): > 100 µM
- TGI (HCT-116 colon): > 100 µM
- TGI (EKVX NSCLC): > 100 µM
- TGI (CAKI-1 renal): > 100 µM
- TGI (OVCAR-3 ovarian): > 100 µM
- TGI (CCRF-CEM leukemia): > 100 µM
- TGI (786-0 renal): > 100 µM
- TGI (NCI-H522 lung): > 100 µM
- TGI (MDA-MB-231 breast): > 100 µM
- TGI (NCI/ADR-RES ovarian): > 100 µM
- TGI (SNB-75 CNS): > 100 µM
- TGI (PC-3 prostate): > 100 µM
- TGI (NCI-H23 lung): > 100 µM
- TGI (NCI-H460 lung): > 100 µM
- TGI (MALME-3M melanoma): > 100 µM
- TGI (OVCAR-5 ovarian): > 100 µM
- TGI (SF-295 CNS): > 100 µM
- TGI (NCI-H226 lung): > 100 µM
- TGI (UACC-257 melanoma): > 100 µM
- TGI (MCF7 breast): > 100 µM
- TGI (SN12C renal): > 100 µM
- TGI (SF-539 CNS): > 100 µM
- TGI (SR leukemia): > 100 µM
- TGI (LOX IMVI melanoma): > 100 µM
- TGI (SNB-19 CNS): > 100 µM
- TGI (HOP-92 NSCLC): > 100 µM
- TGI (HT29 colon): > 100 µM
- TGI (ACHN renal): > 100 µM
- TGI (SW-620 colon): > 100 µM
- TGI (HCT-15 colon): > 100 µM
- TGI (HCC-2998 colon): > 100 µM
- TGI (SK-OV-3 ovarian): > 100 µM
- TGI (OVCAR-4 ovarian): > 100 µM
- TGI (HS 578T breast): > 100 µM
- TGI (M14 melanoma): > 100 µM
- TGI (UACC-62 melanoma): > 100 µM

Structure (SMILES): CCOC(=O)CC(=O)Nc1cccc2sc3ncccc3c(=O)c12
- TGI (OVCAR-8 ovarian): > 100 µM
- TGI (MOLT-4 leukemia): > 100 µM
- TGI (RXF 393 renal): 35.8 µM
- TGI (SK-MEL-5 melanoma): 40.5 µM
- TGI (K-562 leukemia): > 100 µM
- TGI (TK-10 renal): > 100 µM
- TGI (SF-268 CNS): > 100 µM
- TGI (A549 NSCLC): > 100 µM
- TGI (UO-31 renal): > 100 µM
- TGI (COLO 205 colon): > 100 µM
- TGI (MDA-MB-435): > 100 µM
- TGI (KM12 colon): > 100 µM
- TGI (U251 CNS): > 100 µM
- TGI (MDA-N): > 100 µM
- TGI (SK-MEL-28 melanoma): > 100 µM
- TGI (BT-549 breast): > 100 µM
- TGI (HOP-62 NSCLC): > 100 µM
- TGI (HCT-116 colon): > 100 µM
- TGI (EKVX NSCLC): > 100 µM
- TGI (DU-145 prostate): > 100 µM
- TGI (CAKI-1 renal): > 100 µM
- TGI (OVCAR-3 ovarian): > 100 µM
- TGI (CCRF-CEM leukemia): > 100 µM
- TGI (786-0 renal): > 100 µM
- TGI (NCI-H522 lung): > 100 µM
- TGI (MDA-MB-231 breast): > 100 µM
- TGI (NCI/ADR-RES ovarian): > 100 µM
- TGI (SNB-75 CNS): > 100 µM
- TGI (PC-3 prostate): > 100 µM
- TGI (NCI-H23 lung): > 100 µM
- TGI (NCI-H460 lung): > 100 µM
- TGI (MALME-3M melanoma): > 100 µM
- TGI (OVCAR-5 ovarian): > 100 µM
- TGI (SF-295 CNS): > 100 µM
- TGI (NCI-H226 lung): > 100 µM
- TGI (UACC-257 melanoma): > 100 µM
- TGI (MCF7 breast): > 100 µM
- TGI (SN12C renal): > 100 µM
- TGI (SF-539 CNS): > 100 µM
- TGI (SR leukemia): > 100 µM
- TGI (LOX IMVI melanoma): > 100 µM
- TGI (SNB-19 CNS): > 100 µM
- TGI (SK-MEL-2 melanoma): > 100 µM
- TGI (T-47D breast): > 100 µM
- TGI (HT29 colon): > 100 µM
- TGI (RPMI-8226 leukemia): > 100 µM
- TGI (ACHN renal): > 100 µM
- TGI (SW-620 colon): > 100 µM
- TGI (HCT-15 colon): > 100 µM
- TGI (HCC-2998 colon): > 100 µM
- TGI (SK-OV-3 ovarian): > 100 µM
- TGI (OVCAR-4 ovarian): > 100 µM
- TGI (HS 578T breast): > 100 µM
- TGI (M14 melanoma): > 100 µM
- TGI (UACC-62 melanoma): > 100 µM

Reference: PubChem BioAssay (NCI)
